“Also recorded” adds a separate entry of the source. Residues, ends and D or L forms follow the SMILES beside them. *: point of attachment. Cbz = O=C(OCc1ccccc1)*; CH2F = FC*
What was measured:
[1] = tested on: DLD-1 cells; assay: Cell death by Annexin V / propidium iodide FACS analysis; format: cell-based, human; settings: 48 hours
Procedure: The effect of the compound 14 on colon epithelial cell death was also assessed. To this end, cells were cultured as indicated above for 2 days and then the fraction of Annexin V (AV) and/or propidium iodide (PI)-positive cells was evaluated using a commercially available kit (Beckmann Coulter™, Milan, Italy). To evaluate whether the effect of the compound 14 on colon epithelial cell death was dependent on caspase activity, cells were pre-incubated with z-VAD-fmk (40 μM), a pan-caspase inhibitor, for 1 hour prior to adding the compound 14 (1.5 mM). The fraction of AV and PI-positive cells was determined after 48 hours culture as indicated above.

[2] = tested on: DLD-1 cells; assay: Cell growth by colorimetric BrdU incorporation assay, DLD-1; format: cell-based; settings: Homo sapiens, 48 hours; for inhibition at 500 µM: 0.5 mM; for inhibition at 1000 µM: 1 mM; for inhibition at 2500 µM: 2.5 mM; for inhibition at 5000 µM: 5 mM; for inhibition at 10000 µM: 10 mM
Procedure: (§1) HT-29 and DLD-1 cells were cultured in McCoy and RPMI1640 media respectively, supplemented with 10% fetal bovine serum (FBS), 1% penicillin/streptomycin (P/S) and 50 μg/ml gentamycin. HT-115 were cultured in DMEM medium supplemented with 15% FBS and 1% P/S. Cells were maintained in a humidified incubator at 37° C., in the presence of 5% CO2.
(§2) For cell growth assays, single-cell suspensions were plated at 2×10^3 cells/well (4×10^3 cells/well for HT115) in 96-well culture dishes in medium containing 0.5% FBS and allowed to adhere. The non-adherent cells were then removed, and fresh medium containing 0.5% FBS was added into each well. Cells were cultured in the presence or absence of the specified substances. Each substance was dissolved as a 25 mM stock solution in culture medium containing 0.5% FBS, and the pH of each stock solution was adjusted to 7.4, if necessary, with NaOH. Substances were used at a final concentration ranging from 0.5 to 10 mM. Cell proliferation was determined by measuring the incorporation of 5-bromo-2′-deoxyuridine (BrdU) into DNA using a commercially available cell proliferation kit (Roche Diagnostics™, Monza, Italy). BrdU was added to the cell cultures during the last 6 hours of incubation, and the level of BrdU-positive cells was assessed after 48 h culture by enzyme-linked immunosorbent assay (ELISA).
(§3) Optical density (OD) was determined at 450 nm using an ELISA reader. Experiments were performed in triplicate and the results are reported as the mean±standard deviation (SD).

[3] = tested on: HT-29, HT-115 and DLD-1; assay: Colon cancer cell growth by BrdU assay, three human colon carcinoma cell lines; format: cell-based; settings: for anti-proliferative effect on colon cancer cell growth (in words): 0.5-10 mM; for anti-proliferative effect on colon cancer cell growth (in words) / inhibition at 10000 µM: 48 h; for inhibition at 10000 µM: Homo sapiens, Colon carcinoma cell, final concentration 10 mM; for cell death following precipitates in cell cultures: colon cancer cell cultures, Example 10
Procedure: For this purpose, three human colon carcinoma cell lines (i.e. HT-29, HT-115 and DLD-1) were used. These cell types were selected on the basis of the cyclooxigenase-2 (COX-2) expression. Indeed, HT-115 cells express a biologically active COX-2, HT-29 cells express a non-functional COX-2 isoform, and DLD-1 are COX-2-deficient cells.
as §1, §2, §3

[4] = tested on: HT-29 STD cells; assay: Cytotoxic effect on epithelial cells seen in the HT-29 experiments; format: cell-based, human; settings: 30 mM, HT-29 cells
Procedure: (§4) HT-29 STD cells were transiently transfected using the Effectene™ transfection reagent (Qiagen™) according to instructions from the manufacturer. To test PPARγ activation, we performed transfection with 500 ng of a minimal promoter construct containing two copies of PPRE obtained from the cytochrome p450 4A (2XCYP) (1). The renilla luciferase plasmid ([…]) was also transfected as an internal control for monitoring transfection efficiency and for normalizing the firefly luciferase activity. Transfected cells were left for 48 hours incubation at 37° C. […] The pH of the drug solutions was adjusted to 7.4 with NaOH. Total cell extracts were prepared using the Passive Lysis Buffer (Promega™, Madison, Wis.). Luciferase activity was assayed in 20 μl of the extract using the Promega™ Dual Luciferase assay system according to the manufacturer's protocol. Transfections were assayed in triplicate in at least three separate experiments. The luciferase activity was expressed as fold of the activity obtained in cells treated with the different molecules divided by luciferase activity from non-stimulated cells.
After 24 h of culture, HT-29 STD cells were treated during 24 h with the new molecules 13, 14, 17, 26 and 31, at 30 mM. […] The pH of the drug solutions was adjusted to 7.4 with NaOH. Cells were fixed in PFA 4%, permeabilized in PBS containing 0.1% Triton X-100™ at 4° C. and then incubated with goat normal serum and blocking buffer (1% BSA in PBS) to minimize non-specific adsorption of the antibody.
After 24 h of culture, HT-29 STD cells were treated during 24 h with the new molecules 13, 14, 17, 26 and 31, at a concentration of 30 mM. […] The pH of the drug solutions was adjusted to 7.4 with NaOH. Cells undergoing apoptosis were identified by enzymatic labelling of DNA strands using a terminal transferase dUTP nick end labelling assay (TUNEL assay, Roche Diagnostics™, Meylan, France). Counts of at least 500 cells/sample were systematically performed blindly in one experiment. The results were expressed as the mean±SEM of the number of stained cells.

[5] = Solubility in drug solutions / culture medium; format: physicochemical; settings: for precipitates in cell cultures: colon cancer cell cultures; for solubility: drug solutions for HT-29 experiments, 30 mM, pH 7.4
[6] = tested on: DLD-1 cells; assay: CFSE flow cytometry of cell proliferation; format: cell-based, human; settings: 48 hour treatment, untreated 90±4%
Procedure: To assess further the effect of the compound 14 on colon epithelial cell growth, serum-starved DLD-1 cells were incubated in 0.2 μM carboxyfluorescein diacetate succinimidyl ester (CFSE) (Invitrogen™, Milan Italy) at 37° C. for 30 minutes, then extensively washed and cultured with or without the addition of the compound. After 2 days culture, CFSE fluorescence was evaluated and the proportion of cells undergoing divisions was determined, thus allowing calculation of both precursor frequency and proliferative index.

[7] = biological target: T1, PPARγ (Homo sapiens, UniProt P37231); assay: PPARγ activation, PPRE (2XCYP) luciferase reporter in transfected HT-29 STD cells (Example 8); format: cell-based; settings: 30 mM, 24 hours, HT-29 STD transfected with 2XCYP
T1 construct: HT-29 STD cells were transiently transfected using the Effectene™ transfection reagent; endogenous in cells; host or cells: HT-29 STD (human colon carcinoma)
T1 sequence (P37231 1-505): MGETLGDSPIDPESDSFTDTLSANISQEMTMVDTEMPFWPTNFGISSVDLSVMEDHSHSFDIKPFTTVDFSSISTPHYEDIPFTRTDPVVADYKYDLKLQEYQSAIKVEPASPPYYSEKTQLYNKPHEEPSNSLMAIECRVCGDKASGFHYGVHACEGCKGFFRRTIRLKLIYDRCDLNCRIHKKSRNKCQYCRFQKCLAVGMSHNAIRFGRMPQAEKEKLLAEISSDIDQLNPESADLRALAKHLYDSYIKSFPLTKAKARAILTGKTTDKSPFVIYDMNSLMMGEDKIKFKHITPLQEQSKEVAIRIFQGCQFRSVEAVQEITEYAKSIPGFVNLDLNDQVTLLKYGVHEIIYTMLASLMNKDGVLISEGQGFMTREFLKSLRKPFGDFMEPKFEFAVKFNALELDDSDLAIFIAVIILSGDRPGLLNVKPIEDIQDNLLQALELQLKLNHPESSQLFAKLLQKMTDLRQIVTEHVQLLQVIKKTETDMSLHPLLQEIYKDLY
Procedure: as §4

[8] = tested on: PPARγ; assay: PPARγ protein expression by western blot in HT-29 cells; format: cell-based, human; settings: 30 mM, 24 hours, HT-29, relative to β-actin
Procedure: The total proteins were obtained by cell homogenization in an extraction buffer consisting of PBS with 2% Triton™, Phenyl Methyl Sulphonyl Fluoride (PMSF) 100 mM and a classical protease inhibitor cocktail (2). The total proteins were then separated by polyacrylamide gel electrophoresis and electroblotted. Polyvinylidendifluoride (PVDF) membranes were incubated overnight with rabbit polyclonal primary antibody directed against PPARγ (dilution 1/500, TEBU, Le Perray en Yveline, France). β-actin was detected using a rabbit monoclonal primary antibody diluted at 1/10,000 (Sigma). Immunodetection with a secondary peroxidase-conjugated antibody (1/1000, Dako™, Trappes, France) and chemiluminescence was performed according to the manufacturer's protocol (ECL™, Amersham Pharmacia Biotech™, Orsay, France). Optical density values of PPARγ were given for each condition in proportion to the quantity of the internal control β-actin in the same sample (2).

[9] = tested on: HT-29 STD cells; assay: Cell proliferation by nuclear Ki-67 immunostaining; format: cell-based; settings: Homo sapiens, 30 mM, 24 h, compared to untreated cells, read-out: inhibition of cell proliferation (Ki-67 staining)
Procedure: After 24 h of culture, HT-29 STD cells were treated during 24 h with the new molecules 13, 14, 17, 26 and 31, at 30 mM. […] The pH of the drug solutions was adjusted to 7.4 with NaOH. Cells were fixed in PFA 4%, permeabilized in PBS containing 0.1% Triton X-100™ at 4° C. and then incubated with goat normal serum and blocking buffer (1% BSA in PBS) to minimize non-specific adsorption of the antibody. Cell proliferation was assessed by a nuclear Ki-67 staining using mouse monoclonal primary antibody directed against Ki-67 (dilution 1:50 overnight; ZYMED™ Clinisciences™, Montrouge, France). […] Nuclei were stained with Hoescht 33342 solution (0.125 mg/mL) (Sigma-Aldrich™) and visualized under a fluorescence microscope (Leica™, Bensheim, Germany). Negative controls consisted of staining with a non-specific mouse serum instead of the specific antibody. Counts of at least 500 cells/sample were systematically performed blindly in one experiment. The results were expressed as the mean±SEM of the number of stained cells.

Compound: COC(=O)C[C@H](NC(=O)[C@H](C)NC(=O)[C@@H](NC(=O)OCc1ccccc1)C(C)C)C(=O)CF [Z-VAD, z-VAD-fmk, reference compound] (Cbz-Val-Ala-Asp(OMe)-CH2F)
- percentage of AV/PI-positive cells in cells treated with compound 14 ([1]; preincubation z-VAD-fmk 40 μM 1 hour, then compound 14 1.5 mM): largely reduced

Compound: COc1cc(N)ccc1C(=O)NO [compound 13, 4-amino-N-hydroxy-2-methoxybenzamide]
- inhibition at 500 µM [2]: 21.1%
- inhibition at 1000 µM [2]: 73%
- inhibition at 2500 µM [2]: 92.7%
- inhibition at 5000 µM [2]: 96.3%
- inhibition at 10000 µM [2]: 96.4%
- anti-proliferative effect on colon cancer cell growth (in words) [3]: marked anti-proliferative effect; also recorded: most powerful suppressors of colon cancer cell growth
- inhibition at 10000 µM [3]: > 90%
- cell death following precipitates in cell cultures [3]: massive cell death
- cytotoxic effect on epithelial cells [4]: rapid cytotoxic effects
- precipitates in cell cultures ([5]; Example 10): precipitates developed

Compound: COc1ccc(N)cc1C(=O)NO [compound 14, 5-amino-N-hydroxy-2-methoxybenzamide]
- inhibition at 500 µM [2]: 22.8%
- inhibition at 1000 µM [2]: 36%
- inhibition at 2500 µM [2]: 76.5%
- inhibition at 5000 µM [2]: 90.5%
- inhibition at 10000 µM [2]: 94.1%
- anti-proliferative effect on colon cancer cell growth (in words) [3]: marked anti-proliferative effect; also recorded: most powerful suppressors of colon cancer cell growth
- inhibition at 10000 µM [3]: > 90%
- fraction of proliferating cells ([6]; 0.5 mM): 48±7%
- fraction of proliferating cells ([6]; 1 mM): 21±11%
- fraction of proliferating cells ([6]; 2.5 mM): 11±6%
- cell death (AV and/or PI-positive cells) ([1]; 1.5 mM, p<0.01): significantly enhances DLD1 cell death
- cell death (AV and/or PI-positive cells) ([1]; 3 mM, p<0.001): significantly enhances DLD1 cell death
- cytotoxic effect on epithelial cells [4]: rapid cytotoxic effects

Compound: Nc1cc2c(c(C(=O)O)c1)OCC2 [compound 17, 5-amino-2,3-dihydrobenzofuran-7-carboxylic acid]
- reporter gene activity, factor of increase relative to untreated cells [7]: two-fold; also recorded: about twice
- induction of PPARγ protein levels quantified by western blot [8]: 2 fold
- inhibition at 30000 µM [9]: 67 to 75%
- inhibition at 500 µM [2]: 0%
- inhibition at 1000 µM [2]: 0%
- inhibition at 2500 µM [2]: 33.3%
- inhibition at 5000 µM [2]: 89.3%
- inhibition at 10000 µM [2]: 90.7%
- anti-proliferative effect on colon cancer cell growth (in words) [3]: marked anti-proliferative effect
- solubility [5]: poor solubility

Compound: CCOc1ccc(N)cc1C(=O)NO [compound 26, 5-amino-2-ethoxy-N-hydroxybenzamide]
- induction of PPARγ protein levels quantified by western blot [8]: 2 fold
- inhibition at 500 µM [2]: 13.6%
- inhibition at 1000 µM [2]: 19%
- inhibition at 2500 µM [2]: 62%
- inhibition at 5000 µM [2]: 86%
- inhibition at 10000 µM [2]: 94.5%
- anti-proliferative effect on colon cancer cell growth (in words) [3]: marked anti-proliferative effect
- cytotoxic effect on epithelial cells [4]: rapid cytotoxic effect

Compound: CC1(C)OC(=O)c2cc(N)ccc2O1 [compound 28, 6-amino-2,2-dimethyl-4H-benzo[1,3]dioxin-4-one]
- solubility in the culture medium ([5]; culture medium, Example 10): not soluble in the culture medium

Compound: CC(C)N(c1ccc(O)c(C(=O)O)c1)C(C)C [compound 38, 5-diisopropylaminosalicylic acid]
- inhibition at 500 µM [2]: 6%
- inhibition at 1000 µM [2]: 11.1%
- inhibition at 2500 µM [2]: 51.9%
- inhibition at 5000 µM [2]: 85.9%
- inhibition at 10000 µM [2]: 94.5%
- anti-proliferative effect on colon cancer cell growth (in words) [3]: marked anti-proliferative effect; also recorded: most powerful suppressors of colon cancer cell growth
- cell death following precipitates in cell cultures [3]: massive cell death
- cytotoxic effect on epithelial cells [4]: rapid cytotoxic effect
- precipitates in cell cultures ([5]; Example 10): precipitates developed
- solubility [5]: poor solubility
